Assay results as given in US11535939B2, “Surface treatment method for copper or copper alloy, surface treatment liquid for sterilizing copper or copper alloy, and sterilization method using copper or copper alloy treated by said method” (NATIONAL INSTITUTE FOR MATERIALS SCIENCE, priority 2017, dated 2022).

System: Escherichia coli (E. coli)
Experiment: Simple test for antimicrobial activity using E. coli based on JIS Z2801 (0.9% NaCl, fluorescent dye viability)
Type: cell-based
Settings: Example 5, FIG. 8, Cu sample piece, 5 minutes after seeding
Source text: In this Example, effects of GSH, which is a biological reducing substance, on antimicrobial activity of copper and copper alloys were studied by a simple test for antimicrobial activity using E. coli based on the test for antimicrobial activity specified in JIS Z2801. As shown in FIG. 6(a), first, a copper (Cu) sample piece (15 mm square) was placed on the bottom surface of a glass container. Next, on the upper surface of the sample piece, 0.9% NaCl (−GSH) not containing GSH as a solvent or a 0.9% NaCl solution (+GSH) containing GSH at a concentration of 1.0 mM as a solvent was used to seed about 1.0×10^6 cells/50 μL of E. coli. This bacterial suspension was covered with a polyethylene (PE) sheet so as not to dry the bacterial suspension. Then, the glass container was placed under static culture condition of 35±1° C. The PE sheet was removed 0 minute (immediately after seeding), 5 minutes, and 10 minutes after seeding of E. coli, and 1 mL of 0.9% NaCl+0.1 mM EDTA-2Na was added to the bacterial suspension, and the bacterial suspension was collected by pipetting. A fluorescent dye was added to the collected bacterial suspension, and viability of E. coli was determined by measuring fluorescence intensity. In order to avoid a contact between the back surface of the Cu sample piece and the solution when collecting E. coli, the back surface of the Cu sample piece was coated with a thin silicone sheet in advance. […] GSH was added at a concentration of 0 mM (no addition), 1.0 mM, 2.0 mM, and 10.0 mM, and the results are shown in this order from the left. In FIG. 8, the longitudinal axis represents a ratio of bacterial viability (relative viability) normalized to the bacterial viability in the control test as 1. […] Note that the time from seeding of E. coli to collection of a bacterial suspension was set to 5 minutes.

SMILES: N[C@@H](CCC(=O)N[C@@H](CS)C(=O)NCC(=O)O)C(=O)O [GSH, Reduced glutathione]
- bacterial viability (relative viability) (GSH 1.0 mM): decreased more than a case without GSH
- bacterial viability (relative viability) (GSH 2.0 mM): equivalent or greater than the result without GSH
- bacterial viability (relative viability) (GSH 10.0 mM): equivalent or greater than the result without GSH
